In ChEMBL document CHEMBL1201862, “PubChem BioAssay data set” (2004):
Active and inactive are the calls of the source.

Key:
[1] = molecular target: T1, Orexin/Hypocretin receptor type 1 (Homo sapiens, UniProt O43613); test: (§1) Fluorescence-based cell-based high throughput dose response assay for antagonists of the orexin 1 receptor (OX1R; HCRTR1). [Related pubchem assays (depositor defined):AID434989, AID435008, AID463079, AID485270, AID492963, AID492964, AID492965, AID493232, AID504717, AID504718]; assay type: functional
Orexin receptor type 2 [2] = molecular target: T2, Orexin receptor type 2 (Homo sapiens, UniProt O43614); test: Counterscreen assay for antagonists of the orexin 1 receptor (OX1R; HCRTR1): Fluorescence-based cell-based dose response assay for antagonists of the orexin 2 receptor (OX2R; HCRTR2), run by assay provider.; assay type: functional
[3] = viability of uninfected HEp-2 cells – cell-based, HTS, cytotoxicity control for RSV inhibitor project, dose response (AID 2410); assay type: functional; conditions: human respiratory syncytial virus
CHO-K1 = test: (§2) Counterscreen for antagonists of the orexin 1 receptor (OX1R; HCRTR1): Homogeneous time resolved fluorescence (HTRF)-based cell-based dose response assay to identify antagonists of the parental CHO-K1 cell line. [Related pubchem assays (depositor defined):AID434989, AID435008, AID463079, AID485270, AID492963, AID492964, AID492965, AID493232, AID504699, AID504701]; assay type: functional; conditions: Cricetulus griseus
[4] = as §2, with “Fluorescence-based” for “Homogeneous time resolved fluorescence (HTRF)-based”, “cell-based high throughput” for “cell-based”, “CHO” for “CHO-K1”; assay type: functional
Orexin receptor type 2 [5] = molecular target: T2, Orexin receptor type 2; test: Counterscreen assay for antagonists of the orexin 1 receptor (OX1R; HCRTR1): Homogeneous Time Resolved Fluorescence (HTRF)-based cell-based dose response assay for antagonists of the orexin 2 receptor (OX2R; HCRTR2), run by assay provider.; assay type: functional
[6] = molecular target: T1, Orexin/Hypocretin receptor type 1; test: as §1, with “Homogeneous Time Resolved Fluorescence (HTRF)-based” for “Fluorescence-based”; assay type: functional
H9c2 = test: cells; assay type: functional, cell-based; conditions: Rattus norvegicus, H9c2, Myocardium;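 further: confirmatory concentration-response retest of ultra-high-throughput screening hits for modulation of myocardial damage; cell death induced by hydrogen peroxide oxidative stress; compound pretreatment for 60 min then peroxide exposure for 2 h; potency is for protecting the cells against peroxide damage rather than for killing them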
Candida albicans [7] = test: Candida growth effect without fluconazole – C. albicans CaCi-2, dry powder, counter-screen for antifungal drug resistance project, dose response (AID 488802); assay type: functional, organism-based
Candida albicans [8] = test: antifungal activity against resistant Candida strain – CaCi-8, fluconazole, Alamar Blue, dry powder, dose response (AID 488807); assay type: functional, organism-based
NIH3T3 = test: mammalian cell viability counter-check – Alamar Blue, fluconazole, dry powder, cytotoxicity control for antifungal drug resistance project, dose response (AID 488809); assay type: functional, cell-based; conditions: Mus musculus
[9] = molecular target: Glycogen synthase kinase-3 alpha (Homo sapiens, UniProt P49840); test: Inhibition of Human GSK-3 alpha Activity Measured in Biochemical System Using Microfluidics - 2063-06_Inhibitor_Dose_DryPowder_Activity_Set2. [Related pubchem assays (depositor defined):AID2709]
[10] = molecular target: Glycogen synthase kinase-3 beta (Homo sapiens, UniProt P49841); test: Inhibition of Human GSK-3 beta Activity Measured in Biochemical System Using Microfluidics - 2063-05_Inhibitor_Dose_DryPowder_Activity_Set2. [Related pubchem assays (depositor defined):AID2709]
[11] = molecular target: Cyclin-dependent kinase 5/CDK5 activator 1 (Homo sapiens, UniProt Q00535); test: human CDK5 activity blockade – biochemical, microfluidic mobility shift, dry powder, selectivity assay for GSK-3 alpha inhibitor project, dose response (AID 588430)
[12] = molecular target: T3, Sentrin-specific protease 6 (Homo sapiens, UniProt Q9GZR1); test: SAR Analysis of small molecule inhibitors of Sentrin-specific protease 6 (SENP6) using a Luminescent assay. [Related pubchem assays (depositor defined):AID2582, AID2599]; assay type: functional
T3 sequence (Q9GZR1 whole entry): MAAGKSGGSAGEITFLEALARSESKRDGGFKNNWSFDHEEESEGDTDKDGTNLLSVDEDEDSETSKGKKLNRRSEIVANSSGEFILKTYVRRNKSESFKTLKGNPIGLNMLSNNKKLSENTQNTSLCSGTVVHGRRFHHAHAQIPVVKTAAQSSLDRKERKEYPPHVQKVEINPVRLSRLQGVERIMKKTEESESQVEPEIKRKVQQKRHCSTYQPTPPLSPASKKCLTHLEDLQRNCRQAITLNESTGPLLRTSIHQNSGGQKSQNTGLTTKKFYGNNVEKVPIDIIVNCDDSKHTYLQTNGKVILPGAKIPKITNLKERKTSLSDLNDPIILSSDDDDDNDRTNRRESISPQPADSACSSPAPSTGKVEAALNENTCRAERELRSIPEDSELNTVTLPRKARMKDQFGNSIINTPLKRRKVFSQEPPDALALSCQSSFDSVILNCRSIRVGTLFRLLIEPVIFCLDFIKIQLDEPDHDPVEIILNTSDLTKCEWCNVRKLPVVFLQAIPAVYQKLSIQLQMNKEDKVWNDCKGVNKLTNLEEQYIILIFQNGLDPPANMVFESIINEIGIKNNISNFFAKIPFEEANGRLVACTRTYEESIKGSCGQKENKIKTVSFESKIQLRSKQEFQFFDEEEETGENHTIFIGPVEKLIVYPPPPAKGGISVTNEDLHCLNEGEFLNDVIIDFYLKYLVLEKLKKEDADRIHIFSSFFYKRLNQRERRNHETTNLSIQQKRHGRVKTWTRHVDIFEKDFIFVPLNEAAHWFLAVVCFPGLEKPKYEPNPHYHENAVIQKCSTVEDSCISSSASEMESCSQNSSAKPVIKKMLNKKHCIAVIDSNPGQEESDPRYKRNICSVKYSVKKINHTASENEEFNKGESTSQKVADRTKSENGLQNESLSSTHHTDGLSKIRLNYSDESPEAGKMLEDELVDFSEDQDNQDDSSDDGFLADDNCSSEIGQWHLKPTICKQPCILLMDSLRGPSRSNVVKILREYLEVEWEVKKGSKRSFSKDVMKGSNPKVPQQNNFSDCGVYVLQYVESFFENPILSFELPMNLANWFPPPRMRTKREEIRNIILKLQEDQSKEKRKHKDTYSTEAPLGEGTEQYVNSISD

[13] = molecular target: T4, Sentrin-specific protease 7 (Homo sapiens, UniProt Q9BQF6); test: inhibition of human SENP7 cleavage activity – biochemical, luminescence, SAR follow-up (AID 504497); assay type: functional
T4 sequence (Q9BQF6 whole entry): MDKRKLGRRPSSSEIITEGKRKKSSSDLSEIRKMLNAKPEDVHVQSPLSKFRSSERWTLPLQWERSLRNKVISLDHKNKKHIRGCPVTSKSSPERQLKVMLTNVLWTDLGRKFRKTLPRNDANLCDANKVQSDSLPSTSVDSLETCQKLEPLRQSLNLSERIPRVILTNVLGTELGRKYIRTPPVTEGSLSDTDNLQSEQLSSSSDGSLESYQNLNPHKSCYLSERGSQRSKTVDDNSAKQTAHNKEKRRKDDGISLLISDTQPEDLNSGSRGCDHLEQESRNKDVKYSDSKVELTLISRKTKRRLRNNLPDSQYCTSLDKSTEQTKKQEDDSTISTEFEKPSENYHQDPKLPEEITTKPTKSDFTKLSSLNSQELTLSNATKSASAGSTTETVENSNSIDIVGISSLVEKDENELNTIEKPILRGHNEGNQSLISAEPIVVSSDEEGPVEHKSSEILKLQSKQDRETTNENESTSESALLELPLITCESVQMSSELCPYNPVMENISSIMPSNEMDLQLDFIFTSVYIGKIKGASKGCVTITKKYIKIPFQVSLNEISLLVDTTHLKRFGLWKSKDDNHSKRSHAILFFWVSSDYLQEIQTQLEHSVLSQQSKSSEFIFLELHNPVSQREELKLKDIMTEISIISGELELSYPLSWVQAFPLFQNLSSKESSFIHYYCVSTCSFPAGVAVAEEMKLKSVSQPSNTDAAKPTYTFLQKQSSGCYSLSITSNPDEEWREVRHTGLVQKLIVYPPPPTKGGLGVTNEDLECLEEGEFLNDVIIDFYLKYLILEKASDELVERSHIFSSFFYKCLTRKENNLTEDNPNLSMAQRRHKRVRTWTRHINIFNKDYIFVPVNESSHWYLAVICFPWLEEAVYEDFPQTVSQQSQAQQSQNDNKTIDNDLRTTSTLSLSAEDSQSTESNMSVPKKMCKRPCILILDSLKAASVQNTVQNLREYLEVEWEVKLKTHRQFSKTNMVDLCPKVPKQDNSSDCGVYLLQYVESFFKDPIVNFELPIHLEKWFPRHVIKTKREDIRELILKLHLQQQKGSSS

[14] = molecular target: T5, Sentrin-specific protease 8 (Homo sapiens, UniProt Q96LD8); test: inhibition of human SENP8 cleavage activity – biochemical, luminescence, SAR follow-up (AID 504501); assay type: functional
T5 sequence (Q96LD8 whole entry): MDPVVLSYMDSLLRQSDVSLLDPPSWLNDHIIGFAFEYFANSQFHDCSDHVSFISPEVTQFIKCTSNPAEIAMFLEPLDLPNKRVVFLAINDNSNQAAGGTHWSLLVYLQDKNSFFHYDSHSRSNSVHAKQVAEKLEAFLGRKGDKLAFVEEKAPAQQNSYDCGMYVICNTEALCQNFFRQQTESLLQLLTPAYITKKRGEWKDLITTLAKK

Caspase-3 = molecular target: T6, Caspase-3 (Homo sapiens, UniProt P42574); test: SAR Analysis of small molecule inhibitors of Sentrin-specific proteases (SENPs) using a Caspase-3 Selectivity assay. [Related pubchem assays (depositor defined):AID2540, AID2599, AID434973, AID489001]; assay type: functional
T6 sequence (P42574 whole entry): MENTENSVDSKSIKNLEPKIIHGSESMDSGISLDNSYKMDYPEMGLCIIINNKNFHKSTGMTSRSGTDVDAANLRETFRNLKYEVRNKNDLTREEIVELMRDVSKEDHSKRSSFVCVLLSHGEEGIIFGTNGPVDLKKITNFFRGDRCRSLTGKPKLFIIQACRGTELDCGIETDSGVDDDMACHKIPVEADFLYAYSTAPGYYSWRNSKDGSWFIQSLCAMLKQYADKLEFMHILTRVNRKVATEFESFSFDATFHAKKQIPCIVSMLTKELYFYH

[15] = molecular target: Melanin-concentrating hormone receptor 1 (Homo sapiens, UniProt Q99705); test: Late-stage fluorescence-based counterscreen for antagonists of the G-protein coupled receptor 7 (GPR7): cell-based dose response assay to identify antagonists of the melanin-concentrating hormone receptor 1 (MCHR1) Set 5.; assay type: functional
[16] = molecular target: T7, Neuropeptides B/W receptor type 1 (Homo sapiens, UniProt P48145); test: human NPBW1 receptor blockade, IC50 – cell-based, fluorescence, dose response, set 5, late-stage follow-up (AID 588566); assay type: functional
T7 sequence (P48145 whole entry): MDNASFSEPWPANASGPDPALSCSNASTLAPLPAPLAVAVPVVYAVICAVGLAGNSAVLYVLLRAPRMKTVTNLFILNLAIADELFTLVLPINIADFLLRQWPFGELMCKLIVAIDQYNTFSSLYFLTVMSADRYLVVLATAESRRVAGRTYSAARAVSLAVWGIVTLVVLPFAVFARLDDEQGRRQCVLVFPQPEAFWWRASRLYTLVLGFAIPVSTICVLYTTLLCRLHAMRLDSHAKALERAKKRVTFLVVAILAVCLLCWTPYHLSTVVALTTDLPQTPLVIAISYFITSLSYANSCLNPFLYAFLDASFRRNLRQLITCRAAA

[17] = Vero cell cytotoxicity, cytotoxicity control for M. tuberculosis inhibitor project, purified and synthesized samples, set 3 (AID 504684); assay type: functional
[18] = Vero cell cytotoxicity, dose response, cytotoxicity control for M. tuberculosis growth inhibitor project, Vero cells, purified and synthesized compounds, set 4 (AID 504854); assay type: functional; conditions: Mycobacterium tuberculosis
[19] = THP-1 cell cytotoxicity, cytotoxicity control, set 4 (AID 504911); assay type: functional; conditions: Mycobacterium tuberculosis
[20] = THP-1 cell cytotoxicity, dose response, cytotoxicity control, set 3 (AID 504852); assay type: functional; conditions: Mycobacterium tuberculosis
[21] = A Cell Based Secondary Assay to Explore Cytotoxicity in THP-1 Cells of Compounds that Modulate Mycobacterium tuberculosis in Media Containing Glycerol versus Media without Glycerol (2).; assay type: functional
[22] = Vero cell cytotoxicity, dose response, cytotoxicity control for M. tuberculosis growth inhibitor project, Vero cells, purified and synthesized compounds, set 5 (AID 504909); assay type: functional; conditions: Mycobacterium tuberculosis
[23] = molecular target: Cyclin-dependent kinase 8 (Homo sapiens, UniProt P49336); test: Navigating the Kinome. Panel member name: CDK8; assay type: functional
Cytochrome P450 2C9 = Cytochrome P450 2C9 (Homo sapiens, UniProt P11712)
[24] = molecular target: Cyclin-dependent kinase 9 (Homo sapiens, UniProt P50750); assay type: functional;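 further: value from the CDK9 entry of a kinome-spanning kinase panel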
Chain of Cyclin-dependent kinase 9 (P50750 whole entry): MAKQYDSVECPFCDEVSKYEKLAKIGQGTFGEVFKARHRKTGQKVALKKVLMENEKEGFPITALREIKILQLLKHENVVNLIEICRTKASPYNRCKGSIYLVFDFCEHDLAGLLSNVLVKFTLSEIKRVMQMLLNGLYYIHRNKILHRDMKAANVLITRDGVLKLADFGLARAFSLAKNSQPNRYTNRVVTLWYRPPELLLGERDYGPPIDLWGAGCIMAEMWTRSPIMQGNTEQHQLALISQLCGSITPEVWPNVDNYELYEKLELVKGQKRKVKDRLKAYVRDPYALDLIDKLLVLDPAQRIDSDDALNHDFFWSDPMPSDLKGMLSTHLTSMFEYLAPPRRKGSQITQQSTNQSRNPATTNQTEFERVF

T2 sequence (O43614 whole entry): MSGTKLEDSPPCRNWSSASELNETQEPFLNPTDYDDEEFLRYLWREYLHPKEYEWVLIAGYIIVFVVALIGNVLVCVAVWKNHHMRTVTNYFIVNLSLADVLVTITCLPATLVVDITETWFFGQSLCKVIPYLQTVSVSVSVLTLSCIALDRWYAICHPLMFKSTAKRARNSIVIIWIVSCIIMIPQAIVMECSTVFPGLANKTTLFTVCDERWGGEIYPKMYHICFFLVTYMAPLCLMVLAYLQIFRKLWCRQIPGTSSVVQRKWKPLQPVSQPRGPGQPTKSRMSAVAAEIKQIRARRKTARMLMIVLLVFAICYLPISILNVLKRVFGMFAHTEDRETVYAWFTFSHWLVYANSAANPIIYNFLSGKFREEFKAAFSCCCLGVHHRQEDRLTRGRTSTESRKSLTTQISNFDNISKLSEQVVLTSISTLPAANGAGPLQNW
T1 sequence (O43613 whole entry): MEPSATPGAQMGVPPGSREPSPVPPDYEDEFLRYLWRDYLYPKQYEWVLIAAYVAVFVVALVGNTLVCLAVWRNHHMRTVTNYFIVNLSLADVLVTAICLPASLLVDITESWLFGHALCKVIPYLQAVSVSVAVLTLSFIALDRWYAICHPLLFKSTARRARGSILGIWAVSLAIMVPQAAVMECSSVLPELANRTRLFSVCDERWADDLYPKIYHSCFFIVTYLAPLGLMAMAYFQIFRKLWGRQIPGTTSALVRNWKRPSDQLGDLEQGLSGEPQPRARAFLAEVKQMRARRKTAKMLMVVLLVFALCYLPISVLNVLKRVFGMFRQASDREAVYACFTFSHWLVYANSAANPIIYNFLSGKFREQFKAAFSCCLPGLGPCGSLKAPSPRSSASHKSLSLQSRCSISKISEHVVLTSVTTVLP
Chain of Melanin-concentrating hormone receptor 1 (Q99705 whole entry): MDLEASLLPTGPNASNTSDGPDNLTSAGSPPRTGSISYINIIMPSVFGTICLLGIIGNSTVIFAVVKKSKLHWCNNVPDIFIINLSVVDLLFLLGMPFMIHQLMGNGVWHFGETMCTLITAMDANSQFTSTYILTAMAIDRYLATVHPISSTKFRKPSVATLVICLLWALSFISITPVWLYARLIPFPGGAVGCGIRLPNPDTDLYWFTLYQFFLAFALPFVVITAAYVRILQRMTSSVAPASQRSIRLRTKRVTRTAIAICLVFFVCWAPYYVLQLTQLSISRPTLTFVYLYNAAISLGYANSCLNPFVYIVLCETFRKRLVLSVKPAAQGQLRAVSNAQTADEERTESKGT
Chain of Cytochrome P450 2C9 (P11712 whole entry): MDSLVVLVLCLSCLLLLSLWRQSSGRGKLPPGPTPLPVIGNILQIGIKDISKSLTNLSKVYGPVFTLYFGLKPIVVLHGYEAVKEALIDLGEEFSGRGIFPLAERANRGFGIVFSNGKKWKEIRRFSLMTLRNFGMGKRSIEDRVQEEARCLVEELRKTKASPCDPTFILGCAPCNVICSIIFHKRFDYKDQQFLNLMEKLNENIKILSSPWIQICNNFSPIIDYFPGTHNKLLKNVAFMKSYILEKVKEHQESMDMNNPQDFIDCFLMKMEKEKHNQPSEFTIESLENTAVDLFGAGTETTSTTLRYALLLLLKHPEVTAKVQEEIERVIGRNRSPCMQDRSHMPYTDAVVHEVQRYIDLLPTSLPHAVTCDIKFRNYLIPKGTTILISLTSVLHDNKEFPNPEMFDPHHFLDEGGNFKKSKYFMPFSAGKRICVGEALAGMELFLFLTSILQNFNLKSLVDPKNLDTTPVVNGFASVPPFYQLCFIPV
Chain of Glycogen synthase kinase-3 alpha (P49840 whole entry): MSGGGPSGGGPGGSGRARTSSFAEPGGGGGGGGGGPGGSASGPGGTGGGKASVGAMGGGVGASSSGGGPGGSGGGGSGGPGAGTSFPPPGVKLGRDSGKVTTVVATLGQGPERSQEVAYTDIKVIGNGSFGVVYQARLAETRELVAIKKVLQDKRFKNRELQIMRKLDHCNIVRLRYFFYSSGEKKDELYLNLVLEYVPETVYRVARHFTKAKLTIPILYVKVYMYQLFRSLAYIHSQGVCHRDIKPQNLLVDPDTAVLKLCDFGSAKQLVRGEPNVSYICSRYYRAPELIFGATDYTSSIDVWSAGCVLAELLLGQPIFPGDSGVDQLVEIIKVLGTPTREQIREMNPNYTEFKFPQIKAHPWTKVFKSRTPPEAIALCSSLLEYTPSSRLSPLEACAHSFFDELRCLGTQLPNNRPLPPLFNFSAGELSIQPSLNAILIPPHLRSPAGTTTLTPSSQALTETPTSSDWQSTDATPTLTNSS
Chain of Cyclin-dependent kinase 5/CDK5 activator 1 (Q00535 whole entry): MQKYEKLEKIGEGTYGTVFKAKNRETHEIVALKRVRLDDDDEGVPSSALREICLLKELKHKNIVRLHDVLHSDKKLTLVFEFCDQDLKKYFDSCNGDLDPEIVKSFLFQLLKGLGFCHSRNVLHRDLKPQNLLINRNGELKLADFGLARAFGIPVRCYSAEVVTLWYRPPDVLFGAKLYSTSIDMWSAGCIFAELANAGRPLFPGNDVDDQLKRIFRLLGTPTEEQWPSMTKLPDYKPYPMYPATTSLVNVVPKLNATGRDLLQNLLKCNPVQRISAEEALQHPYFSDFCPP
Chain of Cyclin-dependent kinase 5/CDK5 activator 1 (Q15078 whole entry, further chain): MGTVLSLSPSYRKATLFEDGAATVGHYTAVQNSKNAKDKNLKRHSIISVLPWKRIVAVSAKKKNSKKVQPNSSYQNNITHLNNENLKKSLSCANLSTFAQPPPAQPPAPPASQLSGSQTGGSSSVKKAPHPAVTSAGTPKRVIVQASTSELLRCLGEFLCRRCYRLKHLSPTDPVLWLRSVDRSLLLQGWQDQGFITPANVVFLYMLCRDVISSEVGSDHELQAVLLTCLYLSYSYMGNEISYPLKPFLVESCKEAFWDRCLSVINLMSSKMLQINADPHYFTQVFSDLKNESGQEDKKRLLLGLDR
Chain of Cyclin-dependent kinase 8 (P49336 whole entry): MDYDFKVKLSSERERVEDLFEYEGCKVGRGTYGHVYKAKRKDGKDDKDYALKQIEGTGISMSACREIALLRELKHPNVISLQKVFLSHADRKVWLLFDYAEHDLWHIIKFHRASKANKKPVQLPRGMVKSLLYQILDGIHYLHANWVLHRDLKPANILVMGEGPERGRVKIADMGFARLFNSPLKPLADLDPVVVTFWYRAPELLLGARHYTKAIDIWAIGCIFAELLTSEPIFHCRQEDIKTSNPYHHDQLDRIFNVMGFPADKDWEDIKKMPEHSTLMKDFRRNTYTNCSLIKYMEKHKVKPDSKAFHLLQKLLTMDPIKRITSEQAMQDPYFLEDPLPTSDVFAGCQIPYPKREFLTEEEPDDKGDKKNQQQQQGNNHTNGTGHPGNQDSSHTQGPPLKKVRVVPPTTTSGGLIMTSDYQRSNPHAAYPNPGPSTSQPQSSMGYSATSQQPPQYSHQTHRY
Chain of Glycogen synthase kinase-3 beta (P49841 whole entry): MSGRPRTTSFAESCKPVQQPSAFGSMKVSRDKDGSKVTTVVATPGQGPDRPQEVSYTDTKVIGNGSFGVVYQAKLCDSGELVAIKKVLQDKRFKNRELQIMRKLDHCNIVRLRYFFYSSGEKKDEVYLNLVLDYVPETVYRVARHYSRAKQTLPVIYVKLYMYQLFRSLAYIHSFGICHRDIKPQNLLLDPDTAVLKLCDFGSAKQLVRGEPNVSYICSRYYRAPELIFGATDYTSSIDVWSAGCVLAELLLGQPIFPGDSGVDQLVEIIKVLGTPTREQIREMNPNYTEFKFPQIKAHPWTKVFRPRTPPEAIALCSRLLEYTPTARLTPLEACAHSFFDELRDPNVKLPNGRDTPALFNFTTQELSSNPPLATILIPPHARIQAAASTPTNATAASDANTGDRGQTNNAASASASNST

SMILES: Cc1[nH]c2ccccc2c1C(=O)CSc1nc2ccccc2[nH]1
- IC50 [1]: 12.5 µM (inactive)
- IC50 (Orexin receptor type 2 [2]): > 88.8 µM (inactive)
- CC50 [3]: > 50 µM (active)
- IC50 (CHO-K1): > 66.2 µM (inactive)
- IC50 [4]: > 49.8 µM (inactive)
- IC50 (Orexin receptor type 2 [5]): > 50 µM (inactive)
- IC50 [6]: 3.42 µM (active)
- IC50 (H9c2): 32 µM (inactive)

SMILES: Oc1c2nc3ccc(F)cc3c-2nc2n1CCS2
- AC50 (Candida albicans [7]): 37.3 µM (active)
- AC50 (Candida albicans [8]): 4.72 µM (active)
- AC50 (NIH3T3): 192 µM (active)

SMILES: CCOc1ccccc1/C=N/NC(=O)c1nnn(-c2nonc2N)c1CN1CCC(C)CC1
- AC50 [9]: 0.0392 µM (active)
- AC50 [10]: < 0.016 µM (active)
- AC50 [11]: 65 µM (active)

SMILES: Cc1ccc(NC(=O)c2ccc(OC3CSC3)cc2)cc1
- IC50 [12]: > 99 µM (inactive)
- IC50 [13]: > 99 µM (inactive)
- IC50 [14]: > 99 µM (inactive)
- IC50 (Caspase-3): > 99 µM (inactive)

SMILES: COc1ccc(Oc2c(C(=O)O)cnn(Cc3cccc4ccccc34)c2=O)cc1
- IC50 [15]: > 20 µM (inactive)
- IC50 [16]: > 20 µM (inactive)

SMILES: CN(C(=O)CSc1nc2ccccc2c(=O)[nH]1)C1CCCCC1
- CC50 [17]: > 100 µM (active)
- CC50 [18]: > 100 µM (active)
- CC50 [19]: > 97.4 µM (active)
- CC50 [20]: > 100 µM (active)
- CC50 [21]: > 100 µM (active)
- CC50 [22]: > 100 µM (active)

SMILES: COc1ccc(-c2cc(=O)c3c(O)cc(O)cc3o2)cc1 [ACACETIN]
- Ki [23]: 0.631 µM (active)
- AC50 (Cytochrome P450 2C9): 1.26 µM (inconclusive)
- Ki [24]: 1.26 µM (active)
